{"source": "paper PMC6906431", "about": "“Selective small molecule PARG inhibitor causes replication fork stalling and cancer cell death” (Nature Communications, 2019)", "key": {"MDA-MB-231 cells": {"test_system": "MDA-MB-231 cells", "experiment": "Clonogenic survival assay", "assay_type": "cell-based, human", "settings": "10 µM JA2131 2 h; 3 Gy IR; ~2 weeks"}, "PARG in PC3 cells": {"molecular_target": "T1, PARG in PC3 cells (Homo sapiens, UniProt Q86W56)", "T1 construct": "endogenous in cells; host or cells: PC3", "T1 sequence (Q86W56 whole entry)": "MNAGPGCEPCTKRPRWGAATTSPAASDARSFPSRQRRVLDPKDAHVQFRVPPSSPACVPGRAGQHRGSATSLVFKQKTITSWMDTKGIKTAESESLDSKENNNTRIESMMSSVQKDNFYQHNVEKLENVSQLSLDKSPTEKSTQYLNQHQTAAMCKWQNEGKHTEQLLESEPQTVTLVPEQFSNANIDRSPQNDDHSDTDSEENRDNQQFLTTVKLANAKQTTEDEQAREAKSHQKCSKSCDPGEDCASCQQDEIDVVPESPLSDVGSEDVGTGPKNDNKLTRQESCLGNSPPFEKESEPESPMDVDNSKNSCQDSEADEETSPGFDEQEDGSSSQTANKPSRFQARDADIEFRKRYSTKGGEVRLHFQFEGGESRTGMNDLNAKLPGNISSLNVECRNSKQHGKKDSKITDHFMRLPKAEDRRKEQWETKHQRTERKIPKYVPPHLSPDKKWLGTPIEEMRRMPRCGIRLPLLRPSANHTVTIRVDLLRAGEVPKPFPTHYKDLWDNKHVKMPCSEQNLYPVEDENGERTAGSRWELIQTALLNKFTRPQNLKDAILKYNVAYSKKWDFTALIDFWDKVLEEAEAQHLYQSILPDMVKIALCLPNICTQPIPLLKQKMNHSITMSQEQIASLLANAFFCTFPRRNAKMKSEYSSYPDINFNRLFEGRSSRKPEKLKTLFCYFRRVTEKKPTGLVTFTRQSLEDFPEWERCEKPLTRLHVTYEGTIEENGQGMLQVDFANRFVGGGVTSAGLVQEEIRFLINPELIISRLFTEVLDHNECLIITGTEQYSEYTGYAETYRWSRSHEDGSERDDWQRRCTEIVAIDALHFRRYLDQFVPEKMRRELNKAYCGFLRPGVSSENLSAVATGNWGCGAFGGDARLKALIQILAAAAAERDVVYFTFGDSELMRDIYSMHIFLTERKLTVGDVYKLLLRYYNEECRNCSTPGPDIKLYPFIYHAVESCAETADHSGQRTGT", "experiment": "Cellular thermal shift assay (CETSA)", "assay_type": "cell-based", "settings": "10 μM JA2131", "description": "CETSA was performed as described by Molina et al.[44]. Briefly, PC3 cells were treated with 10 μM JA2131 or an equivalent volume of DMSO for 2 h, washed three times with PBS and extracted for total cell lysate. Ten percent glycerol was added to the samples before subjecting to heat. […] Then, samples were centrifuged at 14,000 rpm for 20 min at 4 °C. Supernatants were carefully removed and analyzed by western blotting analysis.\nSupplementary Fig. 14: Representative CETSA western blots for PARG and PCNA. PC3 cells\ntreated with 10 µM JA2131 or DMSO were temperature shocked as described in Materials and […]\nPCNA antibody. Anti -Histone H3 was used as loading control.\n(1 picture or pasted object on this page, not shown here)"}, "hPARP1": {"molecular_target": "hPARP1 (Homo sapiens, UniProt P09874)", "sequence (P09874 whole entry)": "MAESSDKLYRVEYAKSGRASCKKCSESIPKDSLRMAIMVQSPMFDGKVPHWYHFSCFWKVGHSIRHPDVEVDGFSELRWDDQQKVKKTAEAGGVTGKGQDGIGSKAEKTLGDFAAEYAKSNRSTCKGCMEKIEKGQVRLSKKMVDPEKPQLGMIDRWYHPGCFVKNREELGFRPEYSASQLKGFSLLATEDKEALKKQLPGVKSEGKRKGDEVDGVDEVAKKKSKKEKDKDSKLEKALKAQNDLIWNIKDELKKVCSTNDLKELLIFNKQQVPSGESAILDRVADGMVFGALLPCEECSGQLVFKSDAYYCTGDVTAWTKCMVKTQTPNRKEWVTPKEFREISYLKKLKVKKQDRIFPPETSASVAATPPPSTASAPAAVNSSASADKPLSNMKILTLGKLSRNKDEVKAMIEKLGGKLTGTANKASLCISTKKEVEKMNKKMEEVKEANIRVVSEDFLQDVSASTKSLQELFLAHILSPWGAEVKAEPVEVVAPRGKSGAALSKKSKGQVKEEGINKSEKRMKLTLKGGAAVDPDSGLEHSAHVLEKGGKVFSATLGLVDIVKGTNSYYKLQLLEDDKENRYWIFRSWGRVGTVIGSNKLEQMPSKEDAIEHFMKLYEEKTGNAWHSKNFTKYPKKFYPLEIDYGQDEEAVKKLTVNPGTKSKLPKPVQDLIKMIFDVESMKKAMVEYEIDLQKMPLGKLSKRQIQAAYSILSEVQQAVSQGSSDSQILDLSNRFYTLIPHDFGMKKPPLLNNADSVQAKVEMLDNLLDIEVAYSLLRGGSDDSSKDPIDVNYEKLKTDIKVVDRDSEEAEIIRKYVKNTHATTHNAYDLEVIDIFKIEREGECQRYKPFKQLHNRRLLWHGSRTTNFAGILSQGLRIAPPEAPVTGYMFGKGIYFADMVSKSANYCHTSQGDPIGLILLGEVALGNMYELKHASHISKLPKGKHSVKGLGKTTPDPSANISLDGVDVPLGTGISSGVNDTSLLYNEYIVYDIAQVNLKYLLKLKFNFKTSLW", "experiment": "In vitro PARP1 auto-PARylation", "settings": "inhibitor 25 – 100 µM; 25 µM NAD+"}, "MDA-MB-231 PARG-KD cells": {"test_system": "MDA-MB-231 PARG-KD cells", "experiment": "Sulforhodamine B (SRB) cytotoxicity assay", "assay_type": "cell-based, human", "description": "(§1) Fig. 6 Selective inhibition of PARG by xanthine derivative JA2131. a Clonogenic survival assays of PC3, MDA-MB-231, and MCF-7 cells treated with PARGi. Cells were treated with either DMSO or 10 µM JA2131 for 2 h, irradiated with 3 Gy (MDA-MB-231 and MCF-7), 7 Gy (PC3) IR and grown for ~2 weeks, then colonies were fixed with methanol and stained with crystal violet. The results of three independent experiments are shown. Error bars = the standard error of the mean (SEM). b dose-response of JA2131 in MDA-MB-231 cells with and without IR. Cells were treated with designated concentrations of JA2131 for 2 h and then either left untreated or exposed to 3 Gy IR and allowed to recover for 1 h before lysis. Total protein was immunoblotted with anti-PAR antibody (upper panel), stripped and reprobed with anti-PCNA as a loading control. c MDA-MB-231 cells with stable scrambled shRNA (WT) or stable PARG shRNA, knockdown (KD), were treated with 5 μM JA2131 for 2 h, lysed and then total lysates were immunoblotted for anti-PAR (upper panel) followed by anti-PARG (upper middle panel), anti-PARP1 (lower middle panel) and anti-actin (bottom panel) antibody. […] Stable cells with scramble shRNA (control) and shPARG (PARG-KD) cells were treated with an increasing concentration of JA2131 for growth inhibitory IC50 determination. The data was normalized against 100% survival at the lowest inhibitor concentration. Error bars show the percent coefficient of variation. Equivalent concentrations of DMSO were used as a negative control. e The cytotoxicity of JA2131 along with PDD, Veliparib and Doxorubicin against MRC-5 cells. Error bars show the percent coefficient of variation. f CETSA for in-cell JA2131 target engagement. Normalized anti-PARG western blot intensities of three independent experiments were fitted as above and the estimated aggregation temperature (Tagg) is shown in the tabulated insert. Source Data are provided as a Source Data file."}, "[1]": {"test_system": "MDA-MB-231 control cells (scramble shRNA)", "experiment": "Sulforhodamine B (SRB) cytotoxicity assay", "assay_type": "cell-based, human", "settings": "72 h", "description": "as §1"}, "[2]": {"experiment": "Sulforhodamine B (SRB) cytotoxicity assay", "assay_type": "cell-based, human", "settings": "human; for viability at 72 h, 25 µM: log concentration μM 1.39794", "description": "as §1"}, "MRC-5 cells": {"test_system": "MRC-5 cells", "experiment": "Sulforhodamine B (SRB) cytotoxicity assay", "assay_type": "cell-based, human", "settings": "Homo sapiens, MRC5, 72 h", "description": "as §1"}}, "note": "Where “and” joins values, the source holds several entries; their conditions need not be identical. Identical values can stand only once."}
{"smiles": "Cn1c(=S)c2[nH]c(SCCN3CCOCC3)nc2n(C)c1=O", "note": "[JA2131]", "values": [{"measurement": "clonogenic survival (Exp-1 to Exp-4)", "setting": "MDA-MB-231 cells", "value": "45.2569 and 36.8075 and 26.8698 and 36.3114"}, {"measurement": "stabilization of PARG proteins in cells", "setting": "PARG in PC3 cells", "value": 9, "unit": "°C"}, {"measurement": "Band intensities, anti-PARG", "setting": "PARG in PC3 cells; Temperature 4 °C", "value": 100}, {"measurement": "Band intensities, anti-PARG", "setting": "PARG in PC3 cells; Temperature 51 °C", "value": 93.0607}, {"measurement": "Band intensities, anti-PARG", "setting": "PARG in PC3 cells; Temperature 62 °C", "value": 68.3696}, {"measurement": "Band intensities, anti-PARG", "setting": "PARG in PC3 cells; Temperature 68 °C", "value": 57.8125}, {"measurement": "Band intensities, anti-PARG", "setting": "PARG in PC3 cells; Temperature 72 °C", "value": 44.7308}, {"measurement": "Band intensities, anti-PARG", "setting": "PARG in PC3 cells; Temperature 77 °C", "value": 28.3012}, {"measurement": "Band intensities, anti-PARG", "setting": "PARG in PC3 cells; Temperature 85 °C", "value": 16.0619}, {"measurement": "inhibition of PARP1 activation (PAR synthesis)", "setting": "hPARP1", "value": "did not inhibit PARP1 activation up to 100 μM"}, {"measurement": "IC50 in PARG-depleted cells relative to control cells", "setting": "MDA-MB-231 PARG-KD cells", "value": "~10", "unit": "fold"}, {"measurement": "fraction of PARG-KD cells responding to the PARGi", "setting": "MDA-MB-231 PARG-KD cells", "value": 50, "unit": "%"}, {"measurement": "IC50", "setting": "MDA-MB-231 PARG-KD cells; Homo sapiens, MDA-MB-231, growth inhibitory, 72 h", "value": "34.4 ± 13.3", "unit": "µM"}, {"measurement": "Viability", "setting": "MDA-MB-231 PARG-KD cells; log concentration μM 0.193959, 72 h", "value": 105.597, "unit": "%"}, {"measurement": "Viability", "setting": "MDA-MB-231 PARG-KD cells; log concentration μM 0.49485, 72 h", "value": 101.727, "unit": "%"}, {"measurement": "Viability", "setting": "MDA-MB-231 PARG-KD cells; log concentration μM 0.79588, 72 h", "value": 99.9152, "unit": "%"}, {"measurement": "Viability", "setting": "MDA-MB-231 PARG-KD cells; log concentration μM 1.09691, 72 h", "value": 97.9571, "unit": "%"}, {"measurement": "Viability", "setting": "MDA-MB-231 PARG-KD cells; log concentration μM 2, 72 h", "value": 52.7893, "unit": "%"}, {"measurement": "Viability", "setting": "MDA-MB-231 PARG-KD cells; log concentration μM 2.30103, 72 h", "value": 51.5972, "unit": "%"}, {"measurement": "Viability", "setting": "MDA-MB-231 PARG-KD cells; log concentration μM -0.10735, 72 h", "value": 104.639, "unit": "%"}, {"measurement": "Viability", "setting": "MDA-MB-231 PARG-KD cells; log concentration μM -0.40782, 72 h", "value": 106.229, "unit": "%"}, {"measurement": "Viability", "setting": "MDA-MB-231 PARG-KD cells; log concentration μM -0.70997, 72 h", "value": 102.262, "unit": "%"}, {"measurement": "Viability", "setting": "MDA-MB-231 PARG-KD cells; log concentration μM -1.00877, 72 h", "value": 100, "unit": "%"}, {"measurement": "IC50", "setting": "[1]; Homo sapiens, MDA-MB-231, growth inhibitory", "value": "3.89 ± 0.88", "unit": "µM"}, {"measurement": "Viability", "setting": "[1]; log concentration μM 0.193959", "value": 75.9862, "unit": "%"}, {"measurement": "Viability", "setting": "[1]; log concentration μM 0.49485", "value": 65.9005, "unit": "%"}, {"measurement": "Viability", "setting": "[1]; log concentration μM 0.79588", "value": 45.256, "unit": "%"}, {"measurement": "Viability", "setting": "[1]; log concentration μM 1.09691", "value": 30.1241, "unit": "%"}, {"measurement": "Viability", "setting": "[1]; log concentration μM 1.69897", "value": 14.974, "unit": "%"}, {"measurement": "Viability", "setting": "[1]; log concentration μM 2", "value": 13.0697, "unit": "%"}, {"measurement": "Viability", "setting": "[1]; log concentration μM 2.30103", "value": 16.4202, "unit": "%"}, {"measurement": "Viability", "setting": "[1]; log concentration μM -0.10735", "value": 96.2538, "unit": "%"}, {"measurement": "Viability", "setting": "[1]; log concentration μM -0.40782", "value": 101.482, "unit": "%"}, {"measurement": "Viability", "setting": "[1]; log concentration μM -0.70997", "value": 100, "unit": "%"}, {"measurement": "Viability", "setting": "[1]; log concentration μM -1.00877", "value": 100, "unit": "%"}, {"measurement": "viability at 72 h, 25 µM", "setting": "[2]; MDA-MB-231 cells with stable PARG shRNA knockdown (PARG-KD), 72 h", "value": 80.4, "unit": "%"}, {"measurement": "viability at 72 h, 50 µM", "setting": "[2]; MDA-MB-231 cells with stable PARG shRNA knockdown (PARG-KD), log concentration μM 1.69897, 72 h", "value": 70.2, "unit": "%"}, {"measurement": "viability at 72 h, 25 µM", "setting": "[2]; MDA-MB-231 control cells with stable scramble shRNA", "value": 17, "unit": "%"}, {"measurement": "viability at 72 h, 1.95 µM", "setting": "[2]; MRC-5 cells, log [concentration] μM 0.29", "value": 98.4, "unit": "%"}, {"measurement": "viability at 72 h, 3.89 µM", "setting": "[2]; MRC-5 cells, log [concentration] μM 0.59", "value": 99.3, "unit": "%"}, {"measurement": "viability at 72 h, 7.76 µM", "setting": "[2]; MRC-5 cells, log [concentration] μM 0.89", "value": 98.5, "unit": "%"}, {"measurement": "viability at 72 h, 15.5 µM", "setting": "[2]; MRC-5 cells, log [concentration] μM 1.19", "value": 100, "unit": "%"}, {"measurement": "viability at 72 h, 30.9 µM", "setting": "[2]; MRC-5 cells, log [concentration] μM 1.49", "value": 91.9, "unit": "%"}, {"measurement": "viability at 72 h, 63.1 µM", "setting": "[2]; MRC-5 cells, log [concentration] μM 1.8", "value": 79.9, "unit": "%"}, {"measurement": "viability at 72 h, 126 µM", "setting": "[2]; MRC-5 cells, log [concentration] μM 2.1", "value": 61.4, "unit": "%"}, {"measurement": "viability at 72 h, 251 µM", "setting": "[2]; MRC-5 cells, log [concentration] μM 2.4", "value": 28.2, "unit": "%"}, {"measurement": "viability at 72 h, 501 µM", "setting": "[2]; MRC-5 cells, log [concentration] μM 2.7", "value": 20.4, "unit": "%"}, {"measurement": "viability at 72 h, 0.977 µM", "setting": "[2]; MRC-5 cells, log [concentration] μM -0.01", "value": 93.5, "unit": "%"}, {"measurement": "viability at 72 h, 0.49 µM", "setting": "[2]; MRC-5 cells, log [concentration] μM -0.31", "value": 100, "unit": "%"}, {"measurement": "viability at 72 h, 0.245 µM", "setting": "[2]; MRC-5 cells, log [concentration] μM -0.61", "value": 100, "unit": "%"}, {"measurement": "IC50", "setting": "MRC-5 cells", "value": "132 ± 35.9", "unit": "µM"}]}
